Laboratory results reported in the supplement of paper PMC11061612.

How the values were obtained:
Assay in all cases: combination Emax (second highest fraction inhibited in the dose matrix, 72 h); higher = more inhibition; extreme values may be limits of the assay
[1] = tested on: EoL-1-cell (Acute Myeloid Leukemia)
How it was run: (§1)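 Cell lines grown in DMEM/F12 or RPMI with 10% FBS were plated in 1536-well plates and held 24 hours at 37°C, 5% CO2 before 72 hours of exposure to two-drug dose matrices, with DMSO typically at 0.2%. CellTiter-Glo 2.0 luminescence gave viability, which was converted to inhibition. Vehicle wells were set to 0 and blank wells to 1. Combination Emax is the second-highest inhibition in the matrix, and Bliss excess is the observed combination effect minus the expected EA + EB − EA·EB, where EA and EB are the single-agent effects.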

EW-24 (Ewing's Sarcoma) = tested on: EW-24 (Ewing's Sarcoma)
How it was run: as §1

[2] = tested on: Caov-4 (Ovarian Carcinoma)
How it was run: as §1

[3] = tested on: MLMA (Other Blood Carcinomas)
How it was run: as §1

[4] = tested on: LU-65 (Non-Small Cell Lung Carcinoma)
How it was run: as §1

[5] = tested on: NCI-H358 (Lung Adenocarcinoma)
How it was run: as §1

[6] = tested on: NCI-H727 (Other Solid Carcinomas)
How it was run: as §1

[7] = tested on: Hs-766T (Pancreatic Carcinoma)
How it was run: as §1

[8] = tested on: SW13 (Other Solid Carcinomas)
How it was run: as §1

D-263MG (Glioblastoma) = tested on: D-263MG (Glioblastoma)
How it was run: as §1

NB69 (Neuroblastoma) = tested on: NB69 (Neuroblastoma)
How it was run: as §1

[9] = tested on: MIA-PaCa-2 (Pancreatic Carcinoma)
How it was run: as §1

YH-13 (Glioblastoma) = tested on: YH-13 (Glioblastoma)
How it was run: as §1

Structure (SMILES) | combination Emax [1] | combination Emax (EW-24 (Ewing's Sarcoma)) | combination Emax [2] | combination Emax [3] | combination Emax [4] | combination Emax [5] | combination Emax [6] | combination Emax [7] | combination Emax [8] | combination Emax (D-263MG (Glioblastoma)) | combination Emax (NB69 (Neuroblastoma)) | combination Emax [9] | combination Emax (YH-13 (Glioblastoma))
O=C(c1cc(Cc2n[nH]c(=O)c3ccccc23)ccc1F)N1CCN(C(=O)C2CC2)CC1 [Olaparib] + Cc1c2c(nn1C)CSCc1cc(n(C)n1)CSc1cc(c3ccccc3c1)OCCCc1c(C(=O)O)n(C)c3c-2c(Cl)ccc13 [AZD5991] (first compound max 10 µM, 7x7, partner max 1 µM) | 1 | 0.193 | 0.482 | 0.384 | 0.2 | 0.197 | 0.106 | 0.0824 | 0.763 | 0.562 | 0.886 | 0.161 | 0.187
O=C(c1cc(Cc2n[nH]c(=O)c3ccccc23)ccc1F)N1CCN(C(=O)C2CC2)CC1 [Olaparib] + CN(CC[C@H](CSC1=CC=CC=C1)NC2=C(C=C(C=C2)S(=O)(=O)NC(=O)C3=CC=C(C=C3)N4CCC(CC4)[C@H](C5=CC=CC=C5C6=CC=C(C=C6)Cl)O)S(=O)(=O)C(F)(F)F)CCO [AZD4320] (first compound max 10 µM, 7x7, partner max 1 µM) | 1 | 0.606 | 0.181 | 0.519 | 0.194 | 0.182 | 0.433 | 0.219 | 0.184 | 0.0474 | 0.943 | 0.184 | 0.401
Cc1c2c(nn1C)CSCc1cc(n(C)n1)CSc1cc(c3ccccc3c1)OCCCc1c(C(=O)O)n(C)c3c-2c(Cl)ccc13 [AZD5991] + CS(=O)(=O)CCNCc1ccc(-c2ccc3ncnc(Nc4ccc(OCc5cccc(F)c5)c(Cl)c4)c3c2)o1 [Lapatinib] (first compound max 1 µM, 7x7, partner max 10 µM) | 1 | 0.32 | 0.891 | 0.232 | 0.332 | 0.478 | 0.299 | 0.188 | 0.973 | 0.458 | 0.902 | 0.496 | 0.186
CC1(C)CCC(CN2CCN(c3ccc(C(=O)NS(=O)(=O)c4ccc(NCC5CCOCC5)c([N+](=O)[O-])c4)c(Oc4cnc5[nH]ccc5c4)c3)CC2)=C(c2ccc(Cl)cc2)C1 [Venetoclax] + CS(=O)(=O)CCNCc1ccc(-c2ccc3ncnc(Nc4ccc(OCc5cccc(F)c5)c(Cl)c4)c3c2)o1 [Lapatinib] (first compound max 1 µM, 7x7, partner max 10 µM) | 0.986 | 0.245 | 0.304 | 0.117 | 0.207 | 0.431 | 0.246 | 0.208 | 0.549 | 0.108 | 0.598 | 0.272 | 0.0901
C[C@@H](Nc1cc(F)cc(F)c1)c1cc(C(=O)N(C)C)cc2c(=O)cc(N3CCOCC3)oc12 [AZD8186] + CC(=O)c1c(C)c2cnc(Nc3ccc(N4CCNCC4)cn3)nc2n(C2CCCC2)c1=O [Palbociclib] (first compound max 10 µM, 7x7, partner max 10 µM) | 0.551 | 0.563 | 0.29 | 0.847 | 0.312 | 0.398 | 0.362 | 0.441 | 0.316 | 0.355 | 0.927 | 0.471 | 0.692
C[C@@H]1COCCN1c1cc(C2([S@](C)(=N)=O)CC2)nc(-c2ccnc3[nH]ccc23)n1 [AZD6738] + Nc1ccn([C@@H]2O[C@H](CO)[C@@H](O)C2(F)F)c(=O)n1 [Gemcitabine] (first compound max 10 µM, 7x7, partner max 0.3 µM) | 1 | 0.8 | 0.894 | 0.794 | 0.848 | 0.733 | 0.526 | 0.505 | 0.932 | 0.738 | 1 | 0.947 | 0.865
C[C@@H](Nc1cc(F)cc(F)c1)c1cc(C(=O)N(C)C)cc2c(=O)cc(N3CCOCC3)oc12 [AZD8186] + C1CN(CCC1(C(=O)N[C@@H](CCO)C2=CC=C(C=C2)Cl)N)C3=NC=NC4=C3C=CN4 [AZD5363] (first compound max 10 µM, 7x7, partner max 10 µM) | 0.816 | 0.447 | 0.309 | 0.623 | 0.615 | 0.33 | 0.411 | 0.336 | 0.251 | 0.284 | 0.659 | 0.258 | 0.644
O=C(c1cc(Cc2n[nH]c(=O)c3ccccc23)ccc1F)N1CCN(C(=O)C2CC2)CC1 [Olaparib] + COc1nnc2ccc(N3CCC(c4ccc(OCCN5CCN(C)C(=O)[C@H]5C)cc4)CC3)nn12 [AZD5153] (first compound max 10 µM, 7x7, partner max 1 µM) | 0.97 | 0.639 | 0.456 | 0.83 | 0.49 | 0.295 | 0.288 | 0.396 | 0.309 | 0.343 | 0.959 | 0.852 | 0.556
Cc1c2c(nn1C)CSCc1cc(n(C)n1)CSc1cc(c3ccccc3c1)OCCCc1c(C(=O)O)n(C)c3c-2c(Cl)ccc13 [AZD5991] + Nc1ccn([C@@H]2O[C@H](CO)[C@@H](O)C2(F)F)c(=O)n1 [Gemcitabine] (first compound max 1 µM, 7x7, partner max 0.3 µM) | 1 | 0.672 | 0.83 | 0.821 | 0.627 | 0.381 | 0.283 | 0.332 | 0.981 | 0.894 | 0.99 | 0.85 | 0.574
CS(=O)(=O)CCNCc1ccc(-c2ccc3ncnc(Nc4ccc(OCc5cccc(F)c5)c(Cl)c4)c3c2)o1 [Lapatinib] + Cn1cnc2c(F)c(Nc3ccc(Br)cc3Cl)c(C(=O)NOCCO)cc21 [Selumetinib] (first compound max 10 µM, 7x7, partner max 10 µM) | 0.832 | 0.222 | 0.694 | 0.316 | 0.701 | 0.621 | 0.631 | 0.582 | 0.687 | 0.259 | 0.916 | 0.57 | 0.209
C=CCn1c(=O)c2cnc(Nc3ccc(N4CCN(C)CC4)cc3)nc2n1-c1cccc(C(C)(C)O)n1 [AZD1775] + Nc1ccn([C@@H]2O[C@H](CO)[C@@H](O)C2(F)F)c(=O)n1 [Gemcitabine] (first compound max 1 µM, partner max 0.3 µM) | 1 | 0.658 | 0.837 | 0.815 | 0.848 | 0.516 | 0.392 | 0.42 | 0.928 | 0.622 | 1 | 0.947 | 0.662
O=C(c1cc(Cc2n[nH]c(=O)c3ccccc23)ccc1F)N1CCN(C(=O)C2CC2)CC1 [Olaparib] + CC1(C)CCC(CN2CCN(c3ccc(C(=O)NS(=O)(=O)c4ccc(NCC5CCOCC5)c([N+](=O)[O-])c4)c(Oc4cnc5[nH]ccc5c4)c3)CC2)=C(c2ccc(Cl)cc2)C1 [Venetoclax] (first compound max 10 µM, 7x7, partner max 1 µM) | 0.99 | 0.195 | 0.137 | 0.265 | 0.164 | 0.133 | 0.119 | 0.135 | 0.213 | 0.0634 | 0.643 | 0.209 | 0.195
Cc1nc(-c2cn3c(n2)-c2ccc(-c4cnn(C(C)(C)C(N)=O)c4)cc2OCC3)n(C(C)C)n1 [Taselisib] + O=C(Nc1ccc2[nH]nc(-c3ccncc3)c2c1)[C@@H]1CCN(CC(=O)N2CCN(c3ccc(-c4ncccn4)cc3)CC2)C1 [SCH772984] (first compound max 10 µM, 7x7, partner max 5 µM) | 1 | 0.602 | 0.763 | 0.561 | 0.991 | 0.798 | 0.958 | 0.676 | 0.894 | 0.892 | 0.997 | 0.797 | 0.932
C[C@@H]1COCCN1c1cc(C2([S@](C)(=N)=O)CC2)nc(-c2ccnc3[nH]ccc23)n1 [AZD6738] + C1CC(C1)(C(=O)[O-])C(=O)[O-].N.N.[Pt+2] [Carboplatin] (first compound max 10 µM, 7x7, partner max 10 µM) | 0.97 | 0.703 | 0.813 | 0.553 | 0.703 | 0.505 | 0.472 | 0.442 | 0.344 | 0.386 | 0.857 | 0.547 | 0.576
C[C@@H](Oc1cc(-c2cnn(C3CCNCC3)c2)cnc1N)c1c(Cl)ccc(F)c1Cl [Crizotinib] + CC1=C(C(=CC=C1)Cl)NC(=O)C2=CN=C(S2)NC3=CC(=NC(=N3)C)N4CCN(CC4)CCO [Dasatinib] (first compound max 10 µM, 7x7, partner max 2 µM) | 1 | 0.738 | 0.414 | 0.529 | 0.852 | 0.607 | 0.79 | 0.533 | 0.736 | 0.843 | 0.951 | 0.608 | 0.978
CN(CCO)CC[C@H](CSc1ccccc1)Nc1ccc(S(=O)(=O)NC(=O)c2ccc(N3CCC([C@@H](O)c4ccccc4-c4ccc(Cl)cc4)CC3)cc2)cc1S(=O)(=O)C(F)(F)F [AZD4320] + CS(=O)(=O)CCNCc1ccc(-c2ccc3ncnc(Nc4ccc(OCc5cccc(F)c5)c(Cl)c4)c3c2)o1 [Lapatinib] (first compound max 1 µM, 7x7, partner max 10 µM) | 1 | 0.931 | 0.955 | 0.497 | 0.368 | 0.629 | 0.96 | 0.435 | 0.804 | 0.154 | 0.983 | 0.832 | 0.603
